Experimental data published in patent publication US20160169914A1, “KINETICS BIOMARKERS FOR NEURODEGENERATION” (KineMed, Inc., priority 2014, published 2016).

Legend:
[1] = cited from earlier work
ALS = settings: approved by the FDA in 1995; cited from earlier work
[2] = Tolerability of high body water enrichments of 2H2O; type: in vivo, human; settings: 1-10% of total body water labeled, maintained for weeks or months; humans (>100 persons) and experimental animals
Source text: Relatively high body water enrichments of ^2H2O (e.g., 1-10% of the total body water is labeled) may be achieved relatively inexpensively using the techniques of the invention. […] This finding in a large number of human subjects (>100 persons) is contrary to previous concerns about vestibular toxicities at high doses of ^2H2O. One of the Applicants has discovered that as long as rapid changes in body water enrichment are prevented (e.g., by initial administration in small, divided doses), high body water enrichments of ^2H2O can be maintained with no toxicities. For example, the low expense of commercially available ^2H2O allows long-term maintenance of enrichments in the 1-5% range at relatively low expense (e.g., calculations reveal a lower cost for 2 months labeling at 2% ^2H2O enrichment, and thus 7-8% enrichment in the alanine precursor pool, than for 12 hours labeling of ^2H-leucine at 10% free leucine enrichment, and thus 7-8% enrichment in leucine precursor pool for that period).

[3] = test system: BDNF (brain-derived neurotrophic factor) transport rate; settings: PD patients
Procedure: Statistical significance was assessed by 1-way ANOVA with Tukey post-hoc testing. A P value less than 0.05 was considered statistically significant (* P<0.05). […] Solid lines indicate regression; dashed lines indicate 95% confidence intervals. The statistical test that generated both the r^2 and P values was a linear regression (mean±SD were generated by technical replicates of repeated sample preparations and analyses).
The study group consisted of symptomatic PD patients, all on standard anti-PD medications, and 6 non-PD volunteers. […] Unified PD Rating Scale, PART III, and Hoehn and Yahr scores were obtained for each subject. […] Compliance to the experimental protocol was monitored by the clinical staff through collection of blood plasma samples for body water enrichment. […]
Purified cargo proteins were hydrolyzed by treatment with 6N HCl for 16 hours at 110° C. Protein derived amino acids were derivatized to pentafluorobenzyl derivatives, and ^2H incorporation in alanine released from total vesicular proteins was measured by GC/MS, as described elsewhere (Busch R, et al., Biochim Biophys Acta., 1760(5):730-44 (2006)). ^2H enrichment was calculated as the percent increase over the natural abundance of alanine derivative present as the (M+1) mass isotopomer (EM1) (Busch R, et al., Biochim Biophys Acta., 1760(5):730-44 (2006)). […]

SMILES: COc1ccc2c(c1OC)C(=O)O[C@@H]2[C@H]1c2c(cc3c(c2OC)OCO3)CCN1C [Noscapine]
- half-life in CNS tissue ([1]; CNS tissue (brain and spinal cord) and PNS): long half-life
- blood brain barrier penetration ([1]; in vivo): penetrates the blood brain barrier

SMILES: Nc1nc2ccc(OC(F)(F)F)cc2s1 [Riluzole]
- disease progression (ALS): only delays disease progression modestly

SMILES: [2H]O[2H] [^2H2O]
- toxicity at high body water enrichment [2]: without any evidence of toxicity

SMILES: C#CCN[C@@H]1CCc2ccccc21 [rasagiline]
- deficits in transport rates of BDNF in CSF, compared to patients not treated with Azilect ([3]; rasagiline 1 mg/day, 1-way ANOVA with Tukey post-hoc, * P<0.05, FIG. 7 panel A): reduced deficits in transport rates of BDNF
- correlation between reduced delays in rates of BDNF transport and duration of treatment ([3]; duration of treatment in years prior to LP, linear regression, FIG. 7 panel B): strong correlation
